Experimental data: the SangsterLogP compilation

Experiment: method code SF-HPLC, from DOI: 10.1021/jm00151a006, PMID: 3510299

| SMILES | logP |
| --- | --- |
| CN(Cc1ccccc1)N=O | 1.55 |
| CN(Cc1ccc(C#N)cc1)N=O | 0.99 |
| Cc1cccc(CN(C)N=O)c1 | 1.96 |
| CN(Cc1ccc(Cl)cc1)N=O | 2.19 |
| COc1ccc(CN(C)N=O)cc1 | 1.62 |
| COc1cccc(CN(C)N=O)c1 | 1.6 |
| Cc1ccc(CN(C)N=O)cc1 | 2.14 |
| CN(Cc1cccc([N+](=O)[O-])c1)N=O | 1.17 |
| CN(Cc1ccc([N+](=O)[O-])cc1)N=O | 0.82 |
| CN(Cc1cccc(Cl)c1)N=O | 1.46 |
| CN(Cc1cccc(C(F)(F)F)c1)N=O | 1.99 |
| CN(Cc1ccc(F)cc1)N=O | 1.67 |
